Results from PubChem BioAssay (NCI).
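How tested: cells in 96-well plates exposed to compound for 48 hours at five concentrations. TGI denotes the concentration required for complete inhibition of growth.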

Experiments:
Assay in all cases: NCI anticancer screen, dose series, 48 h
[1] = tested on: OVCAR-3 ovarian
[2] = tested on: MALME-3M melanoma
[3] = tested on: HT29 colon
[4] = tested on: CCRF-CEM leukemia
[5] = tested on: OVCAR-5 ovarian
[6] = tested on: DU-145 prostate
[7] = tested on: HCT-116 colon
[8] = tested on: A498 renal
[9] = tested on: MDA-N
[10] = tested on: PC-3 prostate
[11] = tested on: COLO 205 colon
[12] = tested on: HOP-62 NSCLC
[13] = tested on: UO-31 renal
[14] = tested on: HS 578T breast
[15] = tested on: MOLT-4 leukemia
[16] = tested on: HCT-15 colon
[17] = tested on: SNB-19 CNS
[18] = tested on: KM12 colon
[19] = tested on: SNB-75 CNS
[20] = tested on: NCI-H23 lung
[21] = tested on: A549 NSCLC
[22] = tested on: U251 CNS
[23] = tested on: SF-539 CNS
[24] = tested on: NCI-H460 lung
[25] = tested on: CAKI-1 renal
[26] = tested on: OVCAR-8 ovarian
[27] = tested on: NCI-H226 lung
[28] = tested on: K-562 leukemia
[29] = tested on: UACC-62 melanoma
[30] = tested on: SK-OV-3 ovarian
[31] = tested on: HL-60(TB) leukemia
[32] = tested on: SK-MEL-28 melanoma
[33] = tested on: ACHN renal
[34] = tested on: SF-268 CNS
[35] = tested on: T-47D breast
[36] = tested on: HCC-2998 colon
[37] = tested on: SK-MEL-5 melanoma
[38] = tested on: 786-0 renal
[39] = tested on: M14 melanoma
[40] = tested on: RPMI-8226 leukemia
[41] = tested on: MCF7 breast
[42] = tested on: IGROV1 ovarian
[43] = tested on: RXF 393 renal
[44] = tested on: LOX IMVI melanoma
[45] = tested on: MDA-MB-231 breast
[46] = tested on: SN12C renal
[47] = tested on: OVCAR-4 ovarian
[48] = tested on: TK-10 renal
[49] = tested on: NCI/ADR-RES ovarian
[50] = tested on: SW-620 colon
[51] = tested on: SK-MEL-2 melanoma
[52] = tested on: UACC-257 melanoma
[53] = tested on: EKVX NSCLC
[54] = tested on: NCI-H522 lung
[55] = tested on: MDA-MB-435
[56] = tested on: SR leukemia
[57] = tested on: HOP-92 NSCLC
[58] = tested on: BT-549 breast
[59] = tested on: SF-295 CNS

Cc1cccc2c(N)c3cccc(C(=O)NCC[N+](C)(C)Cc4ccc([N+](=O)[O-])n4C)c3nc12
TGI [1]: > 73.1 µM
TGI [2]: 41.3 µM
TGI [3]: 59 µM
TGI [4]: 41.8 µM
TGI [5]: > 70.8 µM
TGI [6]: > 75.3 µM
TGI [7]: 68.3 µM
TGI [8]: > 63.1 µM
TGI [9]: > 81.2 µM
TGI [10]: > 75.2 µM
TGI [11]: 66.7 µM
TGI [12]: 61.7 µM
TGI [13]: 74.7 µM
TGI [14]: 41 µM
TGI [15]: 25.4 µM
TGI [16]: > 78 µM
TGI [17]: > 100 µM
TGI [18]: 63.4 µM
TGI [19]: 43.2 µM
TGI [20]: > 65.1 µM
TGI [21]: > 52.2 µM
TGI [22]: 63.4 µM
TGI [23]: 52.5 µM
TGI [24]: > 46.6 µM
TGI [25]: > 51.2 µM
TGI [26]: 64.1 µM
TGI [27]: 53.3 µM
TGI [28]: > 31.6 µM
TGI [29]: > 79.6 µM
TGI [30]: > 78 µM
TGI [31]: 29.2 µM
TGI [32]: > 100 µM
TGI [33]: 56.1 µM
TGI [34]: 61.9 µM
TGI [35]: > 85.9 µM
TGI [36]: 55.8 µM
TGI [37]: 59 µM
TGI [38]: > 63.9 µM
TGI [39]: > 69.6 µM
TGI [40]: 52.5 µM
TGI [41]: > 62.5 µM
TGI [42]: 58.4 µM
TGI [43]: > 72.7 µM
TGI [44]: > 64.9 µM
TGI [45]: > 72.6 µM
TGI [46]: > 57.3 µM
TGI [47]: > 74.7 µM
TGI [48]: > 100 µM
TGI [49]: 98.9 µM
TGI [50]: > 82.2 µM
TGI [51]: > 100 µM
TGI [52]: > 80.9 µM
TGI [53]: > 100 µM
TGI [54]: 35.8 µM
TGI [55]: > 85.2 µM
TGI [56]: 36.6 µM
TGI [57]: > 100 µM
TGI [58]: > 71.3 µM
TGI [59]: > 89.3 µM

Cc1cc(OCc2nc(N)nc(N)c2-c2ccc(Cl)c(Cl)c2)ccc1[N+](=O)[O-]
TGI [1]: 3.29 µM
TGI [2]: 29.5 µM
TGI [3]: 18.1 µM
TGI [4]: 2.27 µM
TGI [5]: 47 µM
TGI [6]: > 65 µM
TGI [7]: 16 µM
TGI [8]: 1.3 µM
TGI [9]: 22.9 µM
TGI [10]: 11.7 µM
TGI [11]: 18.9 µM
TGI [12]: 12 µM
TGI [13]: 30.5 µM
TGI [14]: > 88.2 µM
TGI [15]: > 27.5 µM
TGI [16]: 27.4 µM
TGI [17]: > 55.1 µM
TGI [18]: 33.8 µM
TGI [19]: 13.7 µM
TGI [20]: 4.79 µM
TGI [21]: > 100 µM
TGI [22]: 12.3 µM
TGI [23]: 22.5 µM
TGI [24]: 4.88 µM
TGI [25]: 31.8 µM
TGI [26]: 34 µM
TGI [27]: 28.6 µM
TGI [28]: > 100 µM
TGI [29]: 1.88 µM
TGI [30]: > 63.3 µM
TGI [31]: 3.56 µM
TGI [32]: 40.8 µM
TGI [33]: 2.37 µM
TGI [34]: 36.5 µM
TGI [35]: > 51.5 µM
TGI [37]: 15 µM
TGI [38]: 22.3 µM
TGI [39]: 10.7 µM
TGI [40]: > 78.7 µM
TGI [41]: 8.15 µM
TGI [42]: > 41.1 µM
TGI [43]: 21.6 µM
TGI [44]: 37.8 µM
TGI [45]: 7.24 µM
TGI [46]: 25.9 µM
TGI [47]: 39.1 µM
TGI [48]: 13.4 µM
TGI [49]: 18.6 µM
TGI [50]: > 63.6 µM
TGI [51]: 15.1 µM
TGI [52]: 3.28 µM
TGI [53]: 45 µM
TGI [54]: 10.6 µM
TGI [55]: 21.5 µM
TGI [56]: 0.106 µM
TGI [57]: > 60 µM
TGI [58]: 12.2 µM
TGI [59]: 4.72 µM

CCOC(=O)Oc1cc2ccsc2c2c1c1ccccc1n2C(=O)OCC
TGI [1]: > 100 µM
TGI [2]: > 100 µM
TGI [3]: > 100 µM
TGI [4]: > 100 µM
TGI [5]: > 100 µM
TGI [6]: > 100 µM
TGI [7]: > 100 µM
TGI [8]: 32.6 µM
TGI [9]: > 100 µM
TGI [10]: > 100 µM
TGI [11]: > 100 µM
TGI [12]: > 100 µM
TGI [13]: 60.8 µM
TGI [14]: > 100 µM
TGI [15]: > 100 µM
TGI [16]: > 100 µM
TGI [18]: > 100 µM
TGI [19]: > 100 µM
TGI [20]: > 100 µM
TGI [21]: > 100 µM
TGI [22]: > 100 µM
TGI [23]: > 100 µM
TGI [24]: 86.1 µM
TGI [25]: > 100 µM
TGI [26]: > 100 µM
TGI [27]: > 100 µM
TGI [28]: > 100 µM
TGI [29]: > 100 µM
TGI [30]: 84.9 µM
TGI [32]: > 100 µM
TGI [33]: 98.1 µM
TGI [34]: > 100 µM
TGI [35]: > 100 µM
TGI [37]: > 100 µM
TGI [38]: > 100 µM
TGI [39]: > 100 µM
TGI [40]: > 100 µM
TGI [41]: > 100 µM
TGI [42]: > 100 µM
TGI [43]: 45.8 µM
TGI [44]: > 100 µM
TGI [45]: > 100 µM
TGI [46]: > 100 µM
TGI [47]: > 100 µM
TGI [48]: > 100 µM
TGI [49]: > 100 µM
TGI [50]: > 100 µM
TGI [51]: > 100 µM
TGI [52]: > 100 µM
TGI [53]: > 100 µM
TGI [54]: > 100 µM
TGI [55]: > 100 µM
TGI [56]: > 100 µM
TGI [57]: 44.7 µM
TGI [58]: > 100 µM
TGI [59]: > 100 µM
